Values of other authors as cited in US20080255097A1, “Methods for the Treatment of Substance Abuse and Dependence” (priority 2005, published 2008).

Experiments:
[1] = not given; remark: listed apart in the source
[2] = overdose
[3] = system: GABAA receptor α4 subunit mRNA; conditions: exposure at the time of ethanol withdrawal
GABAA receptors = conditions: 10 μM diazepam substituted for ethanol
[4] = system: GABAA receptor α4 subunit mRNA; conditions: withdrawal after long-term exposure
allopregnanolone [5] = conditions: in vivo
allopregnanolone [6] = conditions: in vivo; remark: listed apart in the source

In the case of N[C@@H]1C[C@H]1c1ccccc1 (racemic) [TRANYLCYPROMINE], the “time in which the drug is excreted” value (after withdrawal) is given as 24 h.
In the case of C[C@]12C=CC(=O)N[C@@H]1CC[C@@H]1[C@@H]2CC[C@]2(C)[C@@H](C(=O)Nc3cc(C(F)(F)F)ccc3C(F)(F)F)CC[C@@H]12 [Dutasteride, (5α,17β)-N-{2,5 bis(trifluoromethyl)phenyl}-3-oxo-4-azaandrost-1-ene-17-carboxamide], the “adverse effects compared with therapeutic dose of 0.5 mg” value ([1]; clinical study, daily doses of 5 mg, 60 subjects, 6 months) is given as “subjects for 6 months with no additional adverse effects to those” and the safety ([1]; volunteer studies, single doses up to 40 mg (80 times the therapeutic dose) for 7 days) is given as “without significant safety concerns. In a clinical study, daily doses”.
In the case of NCC1(CC(=O)O)CCCCC1 [Gabapentin], the half-life (in vivo) is listed as 5 to 7 h and the metabolism (in vivo) is listed as “not appreciably metabolized”.
In the case of CCCC(C)(COC(N)=O)COC(N)=O [MEPROBROMATE], the “highest ingested amount with survival” value [2] is listed as “much as 40 g”.
For C=CCN1CC[C@]23c4c5ccc(O)c4O[C@H]2C(=O)CC[C@@]3(O)[C@H]1C5 [Naloxone, 17-allyl-4,5α-epoxy-3,14-dihydroxymorphinan-6-one], the half-life (in vivo) is listed as 1 to 1.67 h.
For CN1C(=O)CN=C(c2ccccc2)c2cc(Cl)ccc21 [diazepam], the “effect on ethanol withdrawal-induced increase in abundance of α4 subunit mRNA” value [3] is listed as “antagonizes”, the “effect on positive modulation of 3 μM flumazenil induced by ethanol withdrawal” value (GABAA receptors) is listed as “negated” and the “amount of α4 subunit mRNA on withdrawal of the drug” value (“amount of α4 subunit mRNA” below) [4] is listed as “marked increase”.
For CNCCC(Oc1ccc(C(F)(F)F)cc1)c1ccccc1 (stereo not drawn) [fluoxetine], the “brain and cerebrospinal fluid content of allopregnanolone” value (allopregnanolone [5]) is given as “increase”.
For CN1CCC[C@H]1c1cccnc1 [nicotine], the half-life (in vivo) is listed as “about 60 minutes” and the “cerebrocortical concentrations of allopregnanolone and its precursors” value (allopregnanolone [6]) is listed as “increase”.
In the case of CCN(C(C)=O)c1cccc(-c2ccnc3c(C#N)cnn23)c1 [zalpelon], the “amount of α4 subunit mRNA” value [4] is given as “marked increase”.
In the case of Cc1ccc(-c2nc3ccc(C)cn3c2CC(=O)N(C)C)cc1 [zolpidem], the “amount of α4 subunit mRNA” value [4] is given as “marked increase”.
